Results taken from patent US7514417B2 (CV Therapeutics, Inc., priority 2005, dated 2009).

Target: T1, A1 adenosine receptor (Mesocricetus auratus, UniProt A0A1U8BVR4)
T1 construct: A1 adenosine receptor sites on the membranes of DDT cells; endogenous in cells; host or cells: DDT cells (DDT1, hamster vas deferens smooth muscle cell line), membrane preparation
T1 sequence (A0A1U8BVR4 1-326): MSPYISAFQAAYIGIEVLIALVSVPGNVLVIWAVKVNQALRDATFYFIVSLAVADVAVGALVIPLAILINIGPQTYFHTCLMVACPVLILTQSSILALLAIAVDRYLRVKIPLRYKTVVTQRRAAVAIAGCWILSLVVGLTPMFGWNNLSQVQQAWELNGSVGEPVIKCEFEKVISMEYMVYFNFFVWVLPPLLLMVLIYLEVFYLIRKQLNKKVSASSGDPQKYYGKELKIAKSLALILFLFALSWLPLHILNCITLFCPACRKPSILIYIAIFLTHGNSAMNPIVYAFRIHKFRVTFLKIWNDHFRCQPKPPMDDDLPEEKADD
Assay: Competitive radioligand binding assay, A1 binding affinity, DDT1 cell membranes
Design: species or system hamster
Conditions: membranes of DDT cells, tritiated radioligand (3H-CPA) 1.5 nM, 23° C. 90 minutes
Description: DDT cells (hamster vas deferens smooth muscle cell line) were grown as monolayers in petri dishes using Dulbecco's Modified Eagle's Medium (DMEM) containing 2.5 μg mL^−1 amphotericin B, 100 U mL^−1 penicillin G, 0.1 mg mL^−1 streptomycin sulfate and 5% fetal bovine serum in a humidified atmosphere of 95% air and 5% CO2. Cells were subcultured twice weekly by dispersion in Hank's Balanced Salt Solution (HBSS) without the divalent cations and containing 1 mM EDTA. The cells were then seeded in growth medium at a density of 1.2×10^5 cells per plate and experiments were performed 4 days later at approximately one day preconfluence.
Attached cells were washed twice with HBSS (2×10 mL), scraped free of the plate with the aid of a rubber policeman in 5 mL of 50 mM Tris-HCl buffer pH 7.4 at 4° C. and the suspension was homogenized for 10 s. The suspension was then centrifuged at 27,000×g for 10 min. The pellet was resuspended in homogenization buffer by vortexing and centrifuged again as described above. The final pellet was resuspended in 1 vol of 50 mM Tris-HCl buffer pH 7.4 containing 5 mM MgCl2 for A1 adenosine receptor assays. For the [^35S]GTPγS binding assay the final pellet was resuspended in 50 mM Tris-HCl pH 7.4 containing 5 mM MgCl2, 100 mM NaCl and 1 mM dithiothreitol. This membrane suspension was then placed in liquid nitrogen for 10 min and stored at −80° C. Aliquots of the membrane suspension were later thawed and used for assays. The protein content was determined with a Bradford™ Assay Kit using bovine serum albumin as standard.
Briefly, 50-70 ug of membrane protein were incubated in a mixture containing 2U/ml adenosine deaminase and 10 μM GTP-γS in 50 mM Tris-HCl buffer, pH 7.4, with 1 mM EDTA in glass tubes. Stock solutions of the compounds of the invention were serially diluted (10^−10M to 10^−4M) in Tris buffer and added to the incubation mixture. […] After incubation at 23° C. 90 minutes, the reaction was stopped by filtration on a Brandel MR24 cell harvester and washing with ice-cold Tris-EDTA buffer (three times, approximate volume 10 ml/wash) over Whatman GF/B filters (presoaked for 1 h in 0.3% polyethylenimine to reduce non-specific binding). Filters were transferred to scintillation vials and 5 ml of Scintisafe (VWR, Brisbane, Calif.) was added. The amount of radioactivity retained on the filters was determined by liquid scintillation spectrometry.

In order of falling Ki:
1. CNC(=O)c1cnn(-c2nc(NCc3ccccc3)c3ncn([C@@H]4O[C@H](CO)[C@@H](O)[C@H]4O)c3n2)c1 [XVI, (1-{9-[(4S,2R,3R,5R)-3,4-dihydroxy-5-(hydroxymethyl)oxolan-2-yl]-6-[benzylamino]purin-2-yl}pyrazol-4-yl)-N-methylcarboxamide]  1790 nM
2. CCOC(=O)c1cnn(-c2nc(NCc3ccccc3)c3ncn([C@@H]4O[C@H](CO)[C@@H](O)[C@H]4O)c3n2)c1 [XII, ethyl 1-{9-[(4S,2R,3R,5R)-3,4-dihydroxy-5-(hydroxymethyl)oxolan-2-yl]-6-[benzylamino]purin-2-yl}pyrazole-4-carboxylate]  1720 nM
3. CCCNC(=O)c1cnn(-c2nc(NCc3ccccc3)c3ncn([C@@H]4O[C@H](CO)[C@@H](O)[C@H]4O)c3n2)c1 [XIV, (1-{9-[(4S,2R,3R,5R)-3,4-dihydroxy-5-(hydroxymethyl)oxolan-2-yl]-6-[benzylamino]purin-2-yl}pyrazol-4-yl)-N-propylcarboxamide]  1090 nM
4. Cc1cc(C)n(-c2nc(NC3CCCC3)c3ncn(C4O[C@H](CO)[C@@H](O)[C@H]4O)c3n2)n1 (stereo partly shown) [listing 1 of 2 here]  134 nM
5. Cc1ccc(-c2cnn(-c3nc(N[C@@H]4CCOC4)c4ncn([C@@H]5O[C@H](C(=O)O)[C@@H](O)[C@H]5O)c4n3)c2)cc1  121 nM
6. Cc1cc(C)n(-c2nc(NC3CCCC3)c3ncn(C4O[C@H](CO)[C@@H](O)[C@H]4O)c3n2)n1 (stereo partly shown) [listing 2 of 2 here]  94 nM
7. CCNC(=O)[C@H]1O[C@@H](n2cnc3c(N[C@@H]4CCOC4)nc(-n4cc(-c5ccc6ccccc6n5)cn4)nc32)[C@H](O)[C@@H]1O  74 nM
8. O=C(O)c1ccc(-c2cnn(-c3nc(N[C@@H]4CCOC4)c4ncn(C5OC(CO)C(O)C5O)c4n3)c2)nc1 (stereo partly drawn) [XVII, 6-(1-{6-[((3R)oxolan-3-yl)amino]-9-[3,4-dihydroxy-5-(hydroxymethyl)oxolan-2-yl]purin-2-yl}pyrazol-4-yl)pyridine-3-carboxylic acid]  64 nM
9. O=C(NCc1ccc(Cl)cc1)c1cnn(-c2nc(N[C@@H]3CCOC3)c3ncn([C@@H]4O[C@H](CO)[C@@H](O)[C@H]4O)c3n2)c1 [XVIII, (1-{6-[((3R)oxolan-3-yl)amino]-9-[(4S,2R,3R,5R)-3,4-dihydroxy-5-(hydroxymethyl)oxolan-2-yl]purin-2-yl}pyrazol-4-yl)-N-[(4-chlorophenyl)methyl]carboxamide]  27 nM
10. CCNC(=O)c1cnn(-c2nc(N[C@@H]3CCOC3)c3ncn([C@@H]4O[C@H](CO)[C@@H](O)[C@H]4O)c3n2)c1 [XI, (1-{6-[((3R)oxolan-3-yl)amino]-9-[(4S,2R,3R,5R)-3,4-dihydroxy-5-(hydroxymethyl)oxolan-2-yl]purin-2-yl}pyrazol-4-yl)-N-ethylcarboxamide]  10 nM
11. O=C(O)c1ccc(CNC(=O)c2cnn(-c3nc(N[C@@H]4CCOC4)c4ncn([C@@H]5O[C@H](CO)[C@@H](O)[C@H]5O)c4n3)c2)cc1 [XXX, 4-{[(1-{6-[((3R)oxolan-3-yl)amino]-9-[(4S,2R,3R,5R)-3,4-dihydroxy-5-(hydroxymethyl)oxolan-2-yl]purin-2-yl}pyrazol-4-yl)carbonylamino]methyl}benzoic acid]  8 nM
12. COC(=O)c1ccc(CNC(=O)c2cnn(-c3nc(N[C@@H]4CCOC4)c4ncn([C@@H]5O[C@H](CO)[C@@H](O)[C@H]5O)c4n3)c2)cc1 [XXIX, methyl 4-{[(1-{6-[((3R)oxolan-3-yl)amino]-9-[(4S,2R,3R,5R)-3,4-dihydroxy-5-(hydroxymethyl)oxolan-2-yl]purin-2-yl}pyrazol-4-yl)carbonylamino]methyl}benzoate]  6 nM
13. CNC(=O)c1cnn(-c2nc(NC3CCCC3)c3ncn([C@@H]4O[C@H](CO)[C@@H](O)[C@H]4O)c3n2)c1 [XXXV, (1-{9-[(4S,3R,5R)-3,4-dihydroxy-5-(hydroxymethyl)oxolan-2-yl]-6-(cyclopentylamino)purin-2-yl}pyrazol-4-yl)-N-methylcarboxamide]  1 nM
14. O=C(NCc1ccccc1)c1cnn(-c2nc(N[C@@H]3CCOC3)c3ncn([C@@H]4O[C@H](CO)[C@@H](O)[C@H]4O)c3n2)c1 [XX, (1-{6-[((3R)oxolan-3-yl)amino]-9-[(4S,2R,3R,5R)-3,4-dihydroxy-5-(hydroxymethyl)oxolan-2-yl]purin-2-yl}pyrazol-4-yl)-N-benzylcarboxamide]  1 nM
15. CCOC(=O)c1cnn(-c2nc(NC3CCCC3)c3ncn([C@@H]4O[C@H](CO)[C@@H](O)[C@H]4O)c3n2)c1 (single isomer, unassigned) [XXV]  0.9 nM

Test system: not given
Assay: not given
Conditions: cited from earlier work

For Nc1ncnc2c1ncn2[C@@H]1O[C@H](CO)[C@@H](O)[C@H]1O [adenosine], the half-life is given as “less than 10 sec”.
